Results: US11547681B2, “N-acylethanolamide derivatives and uses thereof” (ELIEM THERAPEUTICS, INC., priority 2016, dated 2023)
One block for each molecule: values may come before it.

Columns and labels:
in vitro [1] = settings: both, human; for microsomal CLint at 1 μM: s9, CLint; for half-life at 1 μM: s9, Half-life
Description: The reaction mixture, minus cofactors, was prepared as described below. The test article was added into the reaction mixture at a final concentration of 1 μM. […] An aliquot of the reaction mixture (without cofactor cocktail) was equilibrated in a shaking water bath at 37° C. for 3 minutes. The reaction was initiated by the addition of cofactor cocktail, and the mixture was incubated in a shaking water bath at 37° C. Aliquots (100 μL) were withdrawn at 0, 10, 20, 30, and 60 minutes. All samples were immediately combined with 400 uL of icecold 50/50 acetonitrile/H2O containing 0.1% formic acid and internal standard to terminate the reaction. The samples were then mixed and centrifuged to precipitate proteins. Calibration standards were prepared in matched matrix. All samples and standards were assayed by LC-MS/MS using electrospray ionization for both the dosed prodrug I-9 and the expected drug (PEA). Analytical conditions are outlined in Appendix 4-1. The test article concentration at each time point was compared to the test article concentration at time 0 to determine the percent remaining at each time point. Half-lives were calculated using GraphPad software, fitting to single-phase exponential decay equation.
(§1) Reaction mixture, minus cofactors, was prepared as described below. Test article was added into the reaction mixture at a final concentration of 1 μM. […] An aliquot of the reaction mixture (without cofactor cocktail) was equilibrated in a shaking water bath at 37° C. for 3 minutes. The reaction was initiated by the addition of cofactor cocktail, and the mixture was incubated in a shaking water bath at 37° C. Aliquots (100 μL) were withdrawn at 0, 10, 20, 30, and 60 minutes. Test article samples were immediately combined with 300 μL of ice-cold acetonitrile containing 1% formic acid. Control samples were immediately combined with 400 μL of ice-cold 50/50 acetonitrile (ACN)/dH2O containing 0.1% formic acid and internal standard to terminate the reaction. Samples were then mixed and centrifuged to precipitate proteins. Calibration standards were prepared in matched matrix. Samples and standards were assayed by LC-MS/MS using electrospray ionization for both the dosed prodrug and the expected drug (PEA). Analytical conditions are outlined in Appendix 8-1. Test article concentration at each time point was compared to test article concentration at time 0 to determine the percent remaining at each time point. Halflives were calculated using GraphPad software, fitting to a single-phase exponential decay equation.
as §1, with “for 5” for “for 3”, “minutes. Reaction” for “minutes. The reaction”, “and” for “and the”, “both” for “both the”, “Appendix 10-1.” for “Appendix 8-1.”
Reaction mixture, minus cofactors, was prepared as described below.

in vitro [2] = settings: male, CD-1, mouse
Description: as §1
as §1, with “for 5” for “for 3”, “minutes. Reaction” for “minutes. The reaction”, “and” for “and the”, “both” for “both the”, “Appendix 10-1.” for “Appendix 8-1.”
Reaction mixture, minus cofactors, was prepared as described below. Test article was added into the reaction mixture at a final concentration of 1 μM. […] An aliquot of the reaction mixture (without cofactor cocktail) was equilibrated in a shaking water bath at 37° C. for 3 minutes. Reaction was initiated by the addition of cofactor cocktail, and the mixture was incubated in a shaking water bath at 37° C. Aliquots (100 μL) were withdrawn at 0, 10, 20, 30, and 60 minutes. Test article samples were immediately combined with 300 μL of ice-cold acetonitrile containing 1% formic acid. Control samples were immediately combined with 400 μL of ice-cold 50/50 acetonitrile (ACN)/dH2O containing 0.1% formic acid and internal standard to terminate the reaction. Samples were then mixed and centrifuged to precipitate proteins. Calibration standards were prepared in matched matrix. Samples and standards were assayed by LC-MS/MS using electrospray ionization for both dosed prodrug and expected drug (PEA). Analytical conditions are outlined in Appendix 13-1. Test article concentration at each time point was compared to test article concentration at time 0 to determine the percent remaining at each time point. Halflives were calculated using GraphPad software, fitting to a single-phase exponential decay equation.

Concentration (μM) of analyte PEA, 0 min (in vitro [1]; 0 min, 1 μM): 0.018 µM
Concentration (μM) of analyte PEA, 10 min (in vitro [1]; 10 min, 1 μM): 0.13 µM
Concentration (μM) of analyte PEA, 20 min (in vitro [1]; 20 min, 1 μM): 0.20 µM
Concentration (μM) of analyte PEA, 30 min (in vitro [1]; 30 min, 1 μM): 0.21 µM
Concentration (μM) of analyte PEA, 60 min (in vitro [1]; 60 min, 1 μM): 0.18 µM
% Remaining of Initial (n = 1), 0 min (in vitro [1]; s9, 0 h, 1 μM): 100%
% Remaining of Initial (n = 1), 10 min (in vitro [1]; s9, 10 min, 1 μM): 4.1%
% Remaining of Initial (n = 1), 20 min (in vitro [1]; s9, 20 min, 1 μM): 1.2%
% Remaining of Initial (n = 1), 30 min (in vitro [1]; s9, 0.5 h, 1 μM): <1.0%
% Remaining of Initial (n = 1), 60 min (in vitro [1]; s9, 1 h, 1 μM): <1.0%
Concentration (μM) of analyte PEA, 0 min (in vitro [2]; 0 min, 1 μM): 0 µM
Concentration (μM) of analyte PEA, 10 min (in vitro [2]; 10 min, 1 μM): 0.021 µM
Concentration (μM) of analyte PEA, 20 min (in vitro [2]; 20 min, 1 μM): 0.059 µM
Concentration (μM) of analyte PEA, 30 min (in vitro [2]; 30 min, 1 μM): 0.12 µM
Concentration (μM) of analyte PEA, 60 min (in vitro [2]; 60 min, 1 μM): 0.084 µM
% Remaining of Initial (n = 1), 0 min (in vitro [2]; s9, 0 h, 1 μM): 100%
% Remaining of Initial (n = 1), 10 min (in vitro [2]; s9, 10 min, 1 μM): <1.0%
% Remaining of Initial (n = 1), 20 min (in vitro [2]; s9, 20 min, 1 μM): <1.0%
% Remaining of Initial (n = 1), 30 min (in vitro [2]; s9, 0.5 h, 1 μM): <1.0%
% Remaining of Initial (n = 1), 60 min (in vitro [2]; s9, 1 h, 1 μM): <1.0%
microsomal CLint at 1 μM (in vitro [2]; s9, CLint (mL/min/mg protein)): > 691 µL/min/mg
half-life at 1 μM (in vitro [2]; s9, Half-life (min)): < 0.0167 h
SMILES: CCCCCCCCCCCCCCCC(=O)NCCOC(=O)CCC(=O)OCC(COC(=O)CCC)OC(=O)CCC (centres unmarked) [Compound I-11]

Concentration, analyte PEA (in vitro [1]; 0 min, 1 μM): 0 nM
Concentration, analyte PEA (in vitro [1]; 10 min, 1 μM): 10 nM
Concentration, analyte PEA (in vitro [1]; 20 min, 1 μM): 14 nM
Concentration, analyte PEA (in vitro [1]; 30 min, 1 μM): 18 nM
Concentration, analyte PEA (in vitro [1]; 60 min, 1 μM): 31 nM
% Remaining of Initial (n = 1) (in vitro [1]; s9, 0 h, 1 μM): 100%
% Remaining of Initial (n = 1) (in vitro [1]; s9, 10 min, 1 μM): 86%
% Remaining of Initial (n = 1) (in vitro [1]; s9, 20 min, 1 μM): 86%
% Remaining of Initial (n = 1) (in vitro [1]; s9, 0.5 h, 1 μM): 86%
% Remaining of Initial (n = 1) (in vitro [1]; s9, 1 h, 1 μM): 59%
microsomal CLint at 1 μM (in vitro [1]): < 11.6 µL/min/mg
microsomal CLint at 1 μM (in vitro [1]; calculated (in parentheses)): 7.57 µL/min/mg
half-life at 1 μM (in vitro [1]): > 1 h
half-life at 1 μM (in vitro [1]; calculated (in parentheses)): 1.53 h
Concentration, analyte PEA (in vitro [2]; 0 min, 1 μM): 12 nM
Concentration, analyte PEA (in vitro [2]; 10 min, 1 μM): 50 nM
Concentration, analyte PEA (in vitro [2]; 20 min, 1 μM): 73 nM
Concentration, analyte PEA (in vitro [2]; 30 min, 1 μM): 96 nM
Concentration, analyte PEA (in vitro [2]; 60 min, 1 μM): 89 nM
% Remaining of Initial (n = 1) (in vitro [2]; s9, 0 h, 1 μM): 100%
% Remaining of Initial (n = 1) (in vitro [2]; s9, 10 min, 1 μM): 97%
% Remaining of Initial (n = 1) (in vitro [2]; s9, 20 min, 1 μM): 71%
% Remaining of Initial (n = 1) (in vitro [2]; s9, 0.5 h, 1 μM): 81%
% Remaining of Initial (n = 1) (in vitro [2]; s9, 1 h, 1 μM): 57%
microsomal CLint at 1 μM (in vitro [2]; s9, CLint): < 11.6 µL/min/mg
microsomal CLint at 1 μM (in vitro [2]; s9, CLint, calculated (in parentheses)): 9.51 µL/min/mg
half-life at 1 μM (in vitro [2]; s9, Half-life): > 1 h
half-life at 1 μM (in vitro [2]; s9, Half-life, calculated (in parentheses)): 1.22 h
SMILES: CCCCC/C=C\C/C=C\CCCCCCCC(=O)OCC(COC(=O)CCC(=O)OCCNC(=O)CCCCCCCCCCCCCCC)OC(=O)CCCCCCC/C=C\C/C=C\CCCCC (centres unmarked) [Compound I-13]

Measured concentration of PEA (analyte) (in vitro [1]; 0 min, 1 μM): 0 µM
Measured concentration of PEA (analyte) (in vitro [1]; 10 min, 1 μM): 0.17 µM
Measured concentration of PEA (analyte) (in vitro [1]; 20 min, 1 μM): 0.29 µM
Measured concentration of PEA (analyte) (in vitro [1]; 30 min, 1 μM): 0.33 µM
Measured concentration of PEA (analyte) (in vitro [1]; 60 min, 1 μM): 0.32 µM
% Remaining of Initial (in vitro [1]; s9, 0 h, 1 μM): 100%
% Remaining of Initial (in vitro [1]; s9, 10 min, 1 μM): 3.2%
% Remaining of Initial (in vitro [1]; s9, 20 min, 1 μM): <1.0%
% Remaining of Initial (in vitro [1]; s9, 0.5 h, 1 μM): <1.0%
% Remaining of Initial (in vitro [1]; s9, 1 h, 1 μM): <1.0%
microsomal CLint at 1 μM (in vitro [1]): > 69.3 µL/min/mg
half-life at 1 μM (in vitro [1]): < 0.167 h
Measured concentration of PEA (analyte) (in vitro [2]; 0 min, 1 μM): 0 µM
Measured concentration of PEA (analyte) (in vitro [2]; 10 min, 1 μM): 0.10 µM
Measured concentration of PEA (analyte) (in vitro [2]; 20 min, 1 μM): 0.17 µM
Measured concentration of PEA (analyte) (in vitro [2]; 30 min, 1 μM): 0.18 µM
Measured concentration of PEA (analyte) (in vitro [2]; 60 min, 1 μM): 0.26 µM
% Remaining of Initial (in vitro [2]; s9, 0 h, 1 μM): 100%
% Remaining of Initial (in vitro [2]; s9, 10 min, 1 μM): 2.0%
% Remaining of Initial (in vitro [2]; s9, 20 min, 1 μM): <1.0%
% Remaining of Initial (in vitro [2]; s9, 0.5 h, 1 μM): <1.0%
% Remaining of Initial (in vitro [2]; s9, 1 h, 1 μM): <1.0%
microsomal CLint at 1 μM (in vitro [2]; s9, CLint): > 69.3 µL/min/mg
half-life at 1 μM (in vitro [2]; s9, Half-life): < 0.167 h
SMILES: CCCCCCCCCCCCCCCC(=O)NCCOC(=O)CCC(=O)OC(COC(=O)CCC)COC(=O)CCC [Compound I-16]
